Patent US20130230580A1, “Administration of SNS Neuroprotective Agents to Promote Hematopoietic Regeneration” (priority 2010, published 2013)
Values joined by “and” are separate entries in the source; they are usually repeats but may differ in a detail not shown here. Identical values can stand only once. “Also recorded” adds a separate entry of the source.

Columns and labels:
[1] = tested on: bone marrow; experiment: Bone marrow hematopoietic recovery after transplantation (BMNC, CFU-C, Lin-Sca1+c-kit+flt3- cells); format: in vivo, mice; conditions: for hematopoietic recovery in BM after transplantation (progenitors, Lin-Sca1+c-kit+flt3- cells, total BM): about 4 weeks / 30 days post-transplantation, vs saline
Procedure: Mice were irradiated (1,200 cGy, two split doses, 3 hours apart) in a Cesium Mark 1 irradiator (JL Shepperd & associates). Three hours later, the indicated number of BMNCs was injected retroorbitally in the irradiated recipients under isoflurane (Phoenix Pharmaceuticals) anesthesia. Mice were allowed to recover and analyzed at the indicated time points. […]
(§1) Blood was harvested by retro-orbital sampling of mice anesthetized with isoflurane and collected in polypropylene tubes containing ethylenediaminetetraacetic acid (EDTA). Blood parameters were determined with an AcT differential counter (Beckman-Coulter). CFU-C assays were performed as described in He et al., Ann. Rev. Cell. Dev. Biol. 25:377 (2009), incorporated herein by reference. For flow cytometry, red blood cells were lysed thrice for 5 minutes at 4° C. in 0.15 M NH4Cl, cells were washed once in ice-cold PBS and counted in a hemocytometer. To determine Lin^−Sca1^+c-kit^+ or Lin^−Sca1^+c-kit^+ft13^− numbers, 10^6 cells were stained with the Mouse Lineage Panel (BD Biosciences) together with FITC-conjugated anti-Sca-1 antibody (BD Biosciences), PE-Cy7-conjugated anti-c-kit antibody (eBioscience) and PE-conjugated anti-flt3 antibody (eBioscience). Cells were further stained with streptavidin-Cy5 (Jackson Immunotech) and analyzed with a BD LSR11 system (BD Biosciences). Bone marrow was harvested by flushing the bone with 1 mL of ice-cold PBS, red blood cells were lysed once for 5 minutes at 4° C. in 0.15 M NH4Cl, cells were washed once in ice-cold PBS and counted with a hemocytometer. CFU-C and Lin^−Sca1^+c-kit^+ft13^− numbers were determined as above. In some experiments, CD150^+CD48^− cell numbers were determined by staining 5×10^6 cells with PE-anti-CD48 antibody (BD Biosciences) and PE-Cy7-anti-CD150 antibody (Biolegend).

[2] = tested on: Nestin+ niche cells; experiment: HSC niche cell analyses (Nestin+ cells, osteoblasts, endothelial cells, macrophages, α-SMA+ cells); format: in vivo
Source text: Since the SNS directs HSC trafficking by acting on Nestin^+ niche cells through the β3 adrenergic receptor, the changes that occurred in the HSC niche after SNS injury and genotoxic insult were investigated. […] The reason for reduced Nestin^+ numbers in SNS-injured mice during BM recovery was then investigated.

[3] = tested on: bone marrow; experiment: Bone marrow regeneration after 5FU (or sublethal irradiation) in 60HDA-sympathectomized mice; format: in vivo
Procedure: (§2) To induce acute peripheral sympathectomy, mice received two i.p. injections of 60HDA (Sigma; 100 mg/kg on day 0; 250 mg/kg on day 2). Three days after the last injection of 60HDA mice were euthanized for analysis, transplanted (see below) or injected with 5-fluorouracil (see below).
(§3) To induce bone marrow ablation and force quiescent HSC to proliferate, 5FU (250 mg/kg; Sigma) was injected i.v. under isoflurane (Phoenix Pharmaceuticals) anesthesia. Mice were allowed to recover and analyzed at the indicated time points.
(§4) To induce neuroprotection from 60HDA, mice were injected with 4-MC (10 μg/kg; i.p.) or GDNF-Fc (5 μg per mice; s.c.) for 5 days, starting the treatment the same day as the first injection of 60HDA.
as §1

[4] = Complete blood counts of moribund 6OHDA-treated mice after 5FU; format: in vivo; conditions: for CH / CHCM / HDW / HCT / Hgb / MCH / MCHC / RDW: moribund 6OHOA-treated mouse
Procedure: as §2, §3, §1

[5] = tested on: bone marrow; experiment: Steady-state bone marrow analysis after cisplatin or 60HDA treatment; format: in vivo, mice; conditions: 3 days after last 60HDA injection
Procedure: To protect from kidney damage, mice were simultaneously subcutaneously (s.c.) injected with 1 mL of saline solution. Four weeks after the last injection of cisplatin, mice were euthanized for analysis, transplanted (see below) or mobilized with granulocyte colony-stimulating factor (G-CSF, see below).
as §2
Blood was harvested by retro-orbital sampling of mice anesthetized with isoflurane and collected in polypropylene tubes containing ethylenediaminetetraacetic acid (EDTA). Blood parameters were determined with an AcT differential counter (Beckman-Coulter). […] For flow cytometry, red blood cells were lysed thrice for 5 minutes at 4° C. in 0.15 M NH4Cl, cells were washed once in ice-cold PBS and counted in a hemocytometer. […] Cells were further stained with streptavidin-Cy5 (Jackson Immunotech) and analyzed with a BD LSR11 system (BD Biosciences). Bone marrow was harvested by flushing the bone with 1 mL of ice-cold PBS, red blood cells were lysed once for 5 minutes at 4° C. in 0.15 M NH4Cl, cells were washed once in ice-cold PBS and counted with a hemocytometer. […]

[6] = Survival after lethal irradiation and bone marrow transplantation; format: in vivo
Procedure: To protect from kidney damage, mice were simultaneously subcutaneously (s.c.) injected with 1 mL of saline solution.
as §2
Mice were irradiated (1,200 cGy, two split doses, 3 hours apart) in a Cesium Mark 1 irradiator (JL Shepperd & associates). Three hours later, the indicated number of BMNCs was injected retroorbitally in the irradiated recipients under isoflurane (Phoenix Pharmaceuticals) anesthesia. Mice were allowed to recover and analyzed at the indicated time points.
as §4

[7] = tested on: bone marrow; experiment: CFU-C homing efficiency to bone marrow; format: in vivo; conditions: compared to control mice, 24 hours after irradiation and BMNC injection
[8] = Survival after 5FU injection in 60HDA-sympathectomized mice; format: in vivo
Procedure: as §2, §3, §4

[9] = target: T1, β3 adrenergic receptors (Mus musculus, UniProt P25962); experiment: β3 adrenergic blockade during 5FU-induced BM regeneration; format: in vivo, mice
T1 construct: β3 adrenergic receptors expressed by niche cells; from tissue; host or cells: live mice (wild-type or Adrb2-/-); receptor expressed by bone marrow niche cells
T1 sequence (P25962 whole entry): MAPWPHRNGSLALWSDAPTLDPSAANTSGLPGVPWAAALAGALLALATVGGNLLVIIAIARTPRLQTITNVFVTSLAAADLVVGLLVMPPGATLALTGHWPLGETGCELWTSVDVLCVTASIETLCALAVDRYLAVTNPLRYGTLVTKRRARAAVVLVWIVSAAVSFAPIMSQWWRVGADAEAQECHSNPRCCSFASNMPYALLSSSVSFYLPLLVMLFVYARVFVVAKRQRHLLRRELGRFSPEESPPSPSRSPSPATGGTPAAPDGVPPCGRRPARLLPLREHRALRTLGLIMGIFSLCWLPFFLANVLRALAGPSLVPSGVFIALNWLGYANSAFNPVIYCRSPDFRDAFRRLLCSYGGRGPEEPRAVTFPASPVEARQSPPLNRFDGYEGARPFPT
Procedure: as §3
To investigate the role of β2 or β3 adrenergic receptors in bone marrow regeneration, β3 adrenergic signaling was blocked in wild-type or Adrb2^tm1Bkk/J mice by injecting the β3-specific antagonist SR59230A (5 mg/kg, i.p.; Sigma), daily for 3 days.

[10] = tested on: TH+ fibers; experiment: Immunofluorescence quantification of TH+ sympathetic fibers in bone marrow / calvaria
Procedure: Bones were collected and fixed for 1 hour in 4% paraformaldehyde (PFA) in PBS (Electron Microscopy Sciences) at 4° C. They were then post-fixed overnight in 1% PFA in PBS at 4° C. and cryoprotected for 24 hours in 30% sucrose. Bones were then included in OCT (Tissue Tek), sectioned (14 μm sections) in a Cryostat, and mounted on CFSA 4× Slides (Leica). TH^+ immunofluorescence staining was performed as previously described in Mendez-Ferrer, et al., Nature 452:442 (2008), incorporated herein by reference. For each mouse analyzed, the number of nerve fibers in 6 fields was quantified and plotted as per mm^2. For whole-mount immunofluorescence, calvaria were harvested by cutting along the temporal lines of the skull and immediately fixed in methanol. Bone tissues were blocked/permeabilized in PBS containing 20% FCS and 0.5% Triton and stained with APC-conjugated anti-PECAM CD31 antibody and TH (Millipore). Signal amplification for TH staining was achieved by using a signal amplification kit (Perkin Elmer). Whole-mount tissues were imaged face-down on an upright Olympus BX61WI microscope. The area between the frontal and parietal bones was identified by moving along the coronal suture and images were obtained from the same area for all mice, along the coronal vein on either side of the central vein. The numbers of individual nerve fibers running alongside blood vessels were quantified and plotted as per 100 μm vessel segment. All images were processed using Slidebook software (Intelligent Imaging Innovations, Inc.).

[11] = 60HDA-treated mice, eight days after 5FU
[12] = 10 days after 5FU (250 mg/kg), listed as 6OHOA
[13] = cisplatin-treated mice plus 4-MC
[14] = 60HDA-lesioned mice plus agent, 12 days after 5FU

Compound: NCCc1cc(O)c(O)cc1O [60HDA, 6-hydroxydopamine]
- hematopoietic recovery in BM after transplantation (progenitors, Lin-Sca1+c-kit+flt3- cells, total BM) [1]: significant reductions in hematopoietic recovery; also recorded: delayed hematopoietic recovery
- Nestin+ cell death (apoptosis) ([2]; 60HDA mice, 24 hours after 5FU): significant increase
- endothelial cells, BM monocyte/macrophages, α-SMA+ perivascular cells 12 days after 5FU ([2]; 60HDA- vs saline-treated mice): failed to detect differences
- Nestin+ cell numbers 12 days after 5FU ([2]; 60HDA-sympathectomized mice): severe deficit
- endothelial cells, osteoblasts, CD68+ cells, α-SMA+ perivascular cells by immunofluorescence prior to 5FU ([2]; 60HDA-treated vs saline mice): did not reveal differences
- number of Nestin+ cells prior to 5FU ([2]; 60HDA-treated vs saline mice): significant increase
- osteoblast numbers prior to 5FU ([2]; 60HDA-treated vs saline mice): slightly increased
- hematopoietic recovery after 5FU ([3]; 60HDA-sympathectomized mice, day 12): significantly impaired hematopoietic recovery
- BM recovery after sublethal irradiation ([3]; 60HDA-treated mice, 12 days after irradiation): Reduced BM recovery
- Lin-Sca1+c-kit+flt3- cell expansion after 5FU ([3]; 60HDA-treated mice, days 4 to 12): blunted
- LSK cell proliferation [3, 11]: increased proliferation
- LSK cell viability [3, 11]: reduced viability
- cause of reduced survival after 5FU ([4]; 60HDA-sympathectomized mice): BM failure
- CH ([4]; 8 days after 5FU (250 mg/kg)): 13.3 pg and 12.8 pg and 12.9 pg
- CHCM ([4]; 8 days after 5FU (250 mg/kg)): 32.8 g·dL and 31.8 g·dL and 31.2 g·dL
- HDW ([4]; 8 days after 5FU (250 mg/kg)): 2.34 g·dL and 1.78 g·dL and 1.74 g·dL
- CH ([4]; 9 days after 5FU (250 mg/kg)): 13.5 pg
- CHCM ([4]; 9 days after 5FU (250 mg/kg)): 33.7 g·dL and 33 g·dL
- HCT ([4]; 9 days after 5FU (250 mg/kg)): 11
- HDW ([4]; 9 days after 5FU (250 mg/kg)): 2.27 g·dL and 2.34 g·dL
- Hgb ([4]; 9 days after 5FU (250 mg/kg)): 3 g·dL
- MCH ([4]; 9 days after 5FU (250 mg/kg)): 9.7 pg and 9.1 pg
- MCHC ([4]; 9 days after 5FU (250 mg/kg)): 24.3 g·dL and 22.3 g·dL
- RDW ([4]; 9 days after 5FU (250 mg/kg)): 12.5 and 12.6
- CH [4, 12]: 12.8 pg and 12.9 pg
- CHCM [4, 12]: 29.3 g·dL and 30.5 g·dL
- HCT [4, 12]: 13 and 10
- HDW [4, 12]: 1.67 g·dL and 2.03 g·dL
- Hgb [4, 12]: 4 g·dL and 6 g·dL
- MCH [4, 12]: 12.8 pg and 18.9 pg
- MCHC [4, 12]: 29.3 g·dL and 44.4 g·dL
- RDW [4, 12]: 12.2 and 13.2
- CH ([4]; 11 days after 5FU (250 mg/kg)): 13.2 pg
- CHCM ([4]; 11 days after 5FU (250 mg/kg)): 30.7 g·dL
- HCT ([4]; 11 days after 5FU (250 mg/kg)): 14
- HDW ([4]; 11 days after 5FU (250 mg/kg)): 1.95 g·dL
- Hgb ([4]; 11 days after 5FU (250 mg/kg)): 3 g·dL
- MCH ([4]; 11 days after 5FU (250 mg/kg)): 10.5 pg
- MCHC ([4]; 11 days after 5FU (250 mg/kg)): 24.3 g·dL
- RDW ([4]; 11 days after 5FU (250 mg/kg)): 11.3
- CH ([4]; 12 days after 5FU (250 mg/kg)): 12.6 pg
- CHCM ([4]; 12 days after 5FU (250 mg/kg)): 31.1 g·dL
- HCT ([4]; 12 days after 5FU (250 mg/kg)): 15
- HDW ([4]; 12 days after 5FU (250 mg/kg)): 2.31 g·dL
- Hgb ([4]; 12 days after 5FU (250 mg/kg)): 3 g·dL
- MCH ([4]; 12 days after 5FU (250 mg/kg)): 9.3 pg
- MCHC ([4]; 12 days after 5FU (250 mg/kg)): 22.9 g·dL
- RDW ([4]; 12 days after 5FU (250 mg/kg)): 13.5
- BM cellularity, CFU-C, Lin-Sca1+c-kit+flt3-, CD48-CD150+ cell numbers, Lin-Sca1+c-kit+ cell cycling [5]: did not alter; also recorded: does not induce significant changes
- mortality after transplantation ([6]; lethally irradiated, transplanted with wild-type BMNC): significant increase in mortality
- CFU-C homing efficiency [7]: No differences; also recorded: No defect
- survival after 5FU ([8]; 60HDA-sympathectomized vs saline mice): dramatically reduced their survival

Compound: CC[C@]1(O)C[C@H]2CN(CCc3c([nH]c4ccccc34)[C@@](C(=O)OC)(c3cc4c(cc3OC)N(C=O)[C@H]3[C@@](O)(C(=O)OC)[C@H](OC(C)=O)[C@]5(CC)C=CCN6CC[C@]43[C@@H]65)C2)C1 [vincristine]
- BM recovery 3 months after transplantation ([1]; mouse, in vivo): not yet completely recovered
- HSC content by competitive repopulation assays ([1]; mouse, in vivo): reduced HSC content

Compound: CCc1ccccc1OC[C@@H](O)CN[C@H]1CCCc2ccccc21 [SR59230A]
- hematopoietic regeneration after 5FU with both β2 and β3 receptors disrupted ([9]; Adrb2-/- mice plus SR59230A): most severe impairment; also recorded: severe impairment in hematopoietic regeneration
- hematopoietic recovery after 5FU under β3 blockade ([9]; wild-type mice, SR59230A alone): sufficient to impair hematopoietic regeneration; also recorded: partially compromised hematopoietic recovery

Compound: Cc1ccc(O)c(O)c1 [4-MC, 4-methylcatechol]
- HSC frequency and absolute numbers (LTC-IC, competitive repopulation assays) ([1]; cisplatin-treated mice plus 4-MC, after transplantation): higher frequency and absolute numbers of HSC
- bone marrow regeneration after transplantation with neuroprotective agent (BM cellularity, progenitor counts, LSKF cells) ([1]; cisplatin-treated mice plus agent, one month after transplantation): accelerated bone marrow regeneration; also recorded: significantly improves hematopoietic cell counts
- Nestin+ cell number 12 days after 5FU ([2]; 60HDA mice plus 4-MC): restored normal Nestin^+ cell number
- SNS-injury-induced expansion of Nestin+ cells and osteoblasts prior to 5FU ([2]; 60HDA mice plus 4-MC): abolished the expansion
- other niche cells (endothelial cells, BM macrophages, perivascular α-SMA cells) ([2]; 60HDA mice plus 4-MC, before or after 5FU): did not affect other niche cells
- endothelial cells, BM macrophages, perivascular α-SMA+ cells before BMT [2, 13]: without affecting
- expansion in Nestin+ cells and osteoblasts before BMT [2, 13]: ameliorated the expansion
- HSC recovery by competitive repopulation assays ([3]; 60HDA-lesioned mice plus 4-MC, after 5FU): significant increase in HSC recovery
- hematopoietic recovery after 5FU with neuroprotective agent (BM, LSKF cells) [3, 14]: increased hematopoietic recovery; also recorded: significantly increased
- BM recovery after 5FU in Tα1-Cre:TrkANeo/Neo mice ([3]; sympathectomized mice treated with 4-MC, TrkA restricted to nervous system): recovery comparable to that of wild-type mice
- TH+ / SNS fiber recovery [10, 14]: induced TH^+ fiber recovery; also recorded: significant recovery in the number of BM SNS fibers; also recorded: protects sympathetic fibers
- increase in bone marrow TH+ fiber density ([10]; cisplatin+4-MC compared to cisplatin+saline, p<0.05): 2 fold
- survival after transplantation with neuroprotective agent ([6]; cisplatin-treated mice plus agent): no death was observed; also recorded: completely abolished transplant-associated death; also recorded: completely prevented neuropathy-induced death
- survival after 5FU with neuroprotective agent ([8]; 60HDA-lesioned mice plus agent): completely protected from death; also recorded: completely abolished 5FU-associated cell death

Compound: N.N.O=C([O-])C1(C(=O)[O-])CCC1.[Pt+2] [carboplatin]
- hematopoietic recovery in BM after transplantation (progenitors, Lin-Sca1+c-kit+flt3- cells, total BM) [1]: not
